Data taken from patent publication US20240216352A1 (priority 2022, published 2024).

Tested on: healthy participants
Test: Phase 1 Part A single ascending dose (SAD) and FE/pH cohort: safety, blood pressure
Format: in vivo, human
Conditions: for Mean SBP: in mmHg (unit assumed); for Maximum of mean (±SD) reduction in DBP from baseline / Maximum of mean (±SD) reduction in SBP from baseline / Time of maximum mean DBP reduction / Time of maximum mean SBP reduction: within 12 h post dose
Method: The study was performed in 3 parts in 112 healthy male and female participants, including 24 Japanese participants. Female participants were to be not of childbearing potential. The present study was designed to evaluate the safety and tolerability, PK, and exploratory PD of an oral suspension of Compound A. Parts A and B (Cohort B1 only) enrolled healthy participants and was conducted at a site in The Netherlands and Part B (Cohort B2 to B5) enrolled healthy non-Japanese participants and was conducted at a site in the United Kingdom (UK). Part C enrolled healthy Japanese participants and was conducted at the same site in the UK.
Part A was an SAD study in a planned number of 6 sequential dose escalation cohorts (3, 10, 30, 100, 150, or 250 mg) of 8 healthy participants (6 active+2 placebo) each, under fasted conditions. Eligible participants in Part A (excluding those in Cohort A7 [food effect (FE)/pH cohort]) received a single administration of study drug (Compound A or placebo) under fasted conditions. In Cohort A1 to Cohort A6, sentinel dosing was employed (1 active+1 placebo, followed after 48 hours by the remaining participants of the cohort [5 active+1 placebo]). […] In addition to the 6 ascending dose cohorts, a cohort of 6 healthy participants (Cohort A7; 6 active, 100 mg Compound A) was included to assess the effect of food and pH on the bioavailability of Compound A in a 3-period, open-label, fixed-sequence, crossover design (FE/pH cohort).
Physical examinations, vital sign measurements (including orthostasis testing in Cohort A6, Cohort B3 to B5, and C1 to C3 at selected time points), 12-lead electrocardiogram (ECG), and clinical laboratory evaluations were performed at selected times throughout the study. In addition, Holter monitoring was performed for the first 24 hours post dose on Day 1 in Part A (not in FE/pH cohort), and also for the first 24 hours post dose on Day 1 and Day 14 in Parts B and C. Participants were closely monitored for adverse events (AEs). Blood samples were collected for up to 14 days (follow-up visit) after (last) study drug administration for PK analysis. In addition, blood and urine were collected for exploratory biomarker assessments and for biobanking of samples for potential analyses. Urine was collected for potential PK analysis for up to 96 hours after a single dose of Compound A or placebo was administered in the SAD part, and for up to 24 hours after the first (morning) dose of study drug on Day 1 and for up to 24 hours after the last (morning) dose of study drug on Day 14 in the MAD parts.

[1] = 100 mg Fasted + Famotidine, D 1 2 h
[2] = 100 mg Fasted + Famotidine, D 1 4 h
[3] = 100 mg Fasted + Famotidine, D 1 8 h
[4] = 100 mg Fasted + Famotidine, D 2 24 h
[5] = 100 mg fasted + famotidine (A7)

CCCN(C)C(=O)OCc1c(-c2ccc(O[C@H]3CCC[C@H](C(=O)O)C3)c(C)n2)nnn1C [Compound A, (1S,3S)-3-((2-methyl-6-(1-methyl-5-(((methyl(propyl)carbamoyl)-oxy)methyl)-1H-1,2,3-triazol-4-yl)pyridin-3-yl)oxy)cyclohexane-1-carboxylic acid]
Mean DBP [1]: 67.2 mmHg
Mean SBP [1]: 111.3
Mean DBP [2]: 65.3 mmHg
Mean SBP [2]: 106.5
Mean DBP [3]: 63.2 mmHg
Mean SBP [3]: 105.0
Mean DBP [4]: 71.7 mmHg
Mean SBP [4]: 118.7
Mean DBP (100 mg Fasted, D 1 2 h): 67.2 mmHg
Mean SBP (100 mg Fasted, D 1 2 h): 107.5
Mean DBP (100 mg Fasted, D 1 4 h): 64.2 mmHg
Mean SBP (100 mg Fasted, D 1 4 h): 103.8
Mean DBP (100 mg Fasted, D 1 8 h): 63 mmHg
Mean SBP (100 mg Fasted, D 1 8 h): 98.0
Mean DBP (100 mg Fasted, D 2 24 h): 69.3 mmHg
Mean SBP (100 mg Fasted, D 2 24 h): 115.2
Mean DBP (100 mg Fed, D 1 2 h): 57.2 mmHg
Mean SBP (100 mg Fed, D 1 2 h): 100.5
Mean DBP (100 mg Fed, D 1 4 h): 58.2 mmHg
Mean SBP (100 mg Fed, D 1 4 h): 104.2
Mean DBP (100 mg Fed, D 1 8 h): 58.8 mmHg
Mean SBP (100 mg Fed, D 1 8 h): 100.3
Mean DBP (100 mg Fed, D 2 24 h): 69.3 mmHg
Mean SBP (100 mg Fed, D 2 24 h): 112.8
Maximum of mean (±SD) reduction in DBP from baseline (100 mg fasted (A7)): 12.5 ± 7.06 mmHg
Maximum of mean (±SD) reduction in SBP from baseline (100 mg fasted (A7)): 25.8 ± 9.54 mmHg
Time of maximum mean DBP reduction (100 mg fasted (A7)): 5 h
Time of maximum mean SBP reduction (100 mg fasted (A7)): 8 h
Maximum of mean (±SD) reduction in DBP from baseline [5]: 11.8 ± 8.40 mmHg
Maximum of mean (±SD) reduction in SBP from baseline [5]: 19.3 ± 17.41 mmHg
Time of maximum mean DBP reduction [5]: 6 h
Time of maximum mean SBP reduction [5]: 6 h
Maximum of mean (±SD) reduction in DBP from baseline (100 mg fed (A7)): 12.7 ± 4.18 mmHg
Maximum of mean (±SD) reduction in SBP from baseline (100 mg fed (A7)): 18.5 ± 12.94 mmHg
Time of maximum mean DBP reduction (100 mg fed (A7)): 5 h
Time of maximum mean SBP reduction (100 mg fed (A7)): 6 h
Dose-limiting events (Cohort A6, 250 mg single dose, 2 sentinel participants dosed): dose-limiting events observed in a sentinel participant
Maximum of mean (±SD) reduction in SBP from baseline (SAD 3 mg (A1)): 5.2 ± 3.43 mmHg
Time of maximum mean SBP reduction (SAD 3 mg (A1)): 2 h
Mean DBP (SAD 3 mg, D 1 2 h): 68.3 mmHg
Mean SBP (SAD 3 mg, D 1 2 h): 119.5
Mean DBP (SAD 3 mg, D 1 4 h): 69.5 mmHg
Mean SBP (SAD 3 mg, D 1 4 h): 120.3
Mean DBP (SAD 3 mg, D 1 8 h): 68 mmHg
Mean SBP (SAD 3 mg, D 1 8 h): 124.5
Mean DBP (SAD 3 mg, D 2 24 h): 68.7 mmHg
Mean SBP (SAD 3 mg, D 2 24 h): 118.8
Maximum of mean (±SD) reduction in DBP from baseline (SAD 10 mg (A2)): 8.8 ± 9.91 mmHg
Maximum of mean (±SD) reduction in SBP from baseline (SAD 10 mg (A2)): 9.5 ± 16.13 mmHg
Time of maximum mean DBP reduction (SAD 10 mg (A2)): 6 h
Time of maximum mean SBP reduction (SAD 10 mg (A2)): 8 h
Mean DBP (SAD 10 mg, D 1 2 h): 67.7 mmHg
Mean SBP (SAD 10 mg, D 1 2 h): 112.2
Mean DBP (SAD 10 mg, D 1 4 h): 68.7 mmHg
Mean SBP (SAD 10 mg, D 1 4 h): 110.2
Mean DBP (SAD 10 mg, D 1 8 h): 63 mmHg
Mean SBP (SAD 10 mg, D 1 8 h): 109.5
Mean DBP (SAD 10 mg, D 2 24 h): 71.7 mmHg
Mean SBP (SAD 10 mg, D 2 24 h): 118.5
Maximum of mean (±SD) reduction in DBP from baseline (SAD 30 mg (A3)): 6.8 ± 1.72 mmHg
Maximum of mean (±SD) reduction in SBP from baseline (SAD 30 mg (A3)): 11.7 ± 7.61 mmHg
Time of maximum mean DBP reduction (SAD 30 mg (A3)): 5 h
Time of maximum mean SBP reduction (SAD 30 mg (A3)): 4 h
Mean DBP (SAD 30 mg, D 1 2 h): 66.2 mmHg
Mean SBP (SAD 30 mg, D 1 2 h): 107.5
Mean DBP (SAD 30 mg, D 1 4 h): 65.2 mmHg
Mean SBP (SAD 30 mg, D 1 4 h): 106.0
Mean DBP (SAD 30 mg, D 1 8 h): 65.2 mmHg
Mean SBP (SAD 30 mg, D 1 8 h): 113.8
Mean DBP (SAD 30 mg, D 2 24 h): 71 mmHg
Mean SBP (SAD 30 mg, D 2 24 h): 120.2
Maximum of mean (±SD) reduction in DBP from baseline (SAD 100 mg (A4)): 9.7 ± 8.64 mmHg
Maximum of mean (±SD) reduction in SBP from baseline (SAD 100 mg (A4)): 15.5 ± 11.59 mmHg
Time of maximum mean DBP reduction (SAD 100 mg (A4)): 5 h
Time of maximum mean SBP reduction (SAD 100 mg (A4)): 2 h
Mean DBP (SAD 100 mg, D 1 2 h): 59 mmHg
Mean SBP (SAD 100 mg, D 1 2 h): 101.0
Mean DBP (SAD 100 mg, D 1 4 h): 58.7 mmHg
Mean SBP (SAD 100 mg, D 1 4 h): 101.3
Mean DBP (SAD 100 mg, D 1 8 h): 56.3 mmHg
Mean SBP (SAD 100 mg, D 1 8 h): 105.0
Mean DBP (SAD 100 mg, D 2 24 h): 66 mmHg
Mean SBP (SAD 100 mg, D 2 24 h): 114.2
Maximum of mean (±SD) reduction in DBP from baseline (SAD 150 mg (A5)): 12.7 ± 5.61 mmHg
Maximum of mean (±SD) reduction in SBP from baseline (SAD 150 mg (A5)): 16.5 ± 8.41 mmHg
Time of maximum mean DBP reduction (SAD 150 mg (A5)): 6 h
Time of maximum mean SBP reduction (SAD 150 mg (A5)): 6 h
Mean DBP (SAD 150 mg, D 1 2 h): 58.2 mmHg
Mean SBP (SAD 150 mg, D 1 2 h): 105.0
Mean DBP (SAD 150 mg, D 1 4 h): 56 mmHg
Mean SBP (SAD 150 mg, D 1 4 h): 101.5
Mean DBP (SAD 150 mg, D 1 8 h): 57.8 mmHg
Mean SBP (SAD 150 mg, D 1 8 h): 107.2
Mean DBP (SAD 150 mg, D 2 24 h): 66.2 mmHg
Mean SBP (SAD 150 mg, D 2 24 h): 114.7
Effect on SBP, DBP and heart rate (SAD cohorts): decreased SBP and DBP dose dependently, reversibly, and mostly asymptomatically with minimal effect on heart rate
Safety and tolerability (single and multiple dose oral administration to healthy participants): generally safe and well tolerated
